Source: paper PMC6188661 (Journal of medicinal chemistry, 2013)
Starred links: 1 amine or outer side, 2 acyl side, 3 side chain; linkers in the order of their positions; H or OH if unused. Non-standard residues stand in square brackets, D forms with d. Residues, ends and D or L forms follow the SMILES beside them. αMeNva(5-ylidene) = C[C@@](CCC=[*:3])(N[*:1])C(=O)[*:2]; S5 = C=CCCC[C@](C)(N)C(=O)O

Tests used:
HIV-1 integrase (IN) [1] = molecular target: T1, HIV-1 integrase (IN) (Human immunodeficiency virus type 1 group M subtype B, UniProt P04585); assay: In vitro HIV-1 IN catalytic activity inhibition, 3′-processing; format: biochemical
HIV-1 integrase (IN) [2] = molecular target: T1, HIV-1 integrase (IN); assay: In vitro HIV-1 IN catalytic activity inhibition, strand transfer; format: biochemical
MT-4 cells = assay: Cytotoxicity in MT-4 cells; format: cell-based; details: 50% cell-death in same cells (MT-4)
HIV-1 = details: 50% cytoprotective activity in HIV-1 infected MT-4 cells

Structure (SMILES)	IC50 (HIV-1 integrase (IN) [1]) [µM]	IC50 (HIV-1 integrase (IN) [2]) [µM]	CC50 (MT-4 cells) [µM]	EC50 (HIV-1) [µM]
C=CCCC[C@](C)(NC(=O)[C@H](CC(C)C)NC(=O)[C@H](CCCCN)NC(=O)[C@H](CC(C)C)NC(=O)[C@](C)(CCCC=C)NC(=O)[C@H](Cc1ccccc1)NC(=O)[C@H](Cc1ccc(O)cc1)NC(=O)[C@H](C)NC(=O)[C@@H](N)[C@@H](C)O)C(=O)NCC(=O)N[C@@H](CCCNC(=N)N)C(=O)N[C@@H](Cc1c[nH]c2ccccc12)C(N)=O [NLH5] (H-TAYF[S5]LKL[S5]GRW-NH2; N-terminus assumed)	9 ± 1	6 ± 1	28	28
C=CCC[C@](C)(NC(=O)[C@H](CC(C)C)NC(=O)[C@H](CCCCN)NC(=O)[C@H](CC(C)C)NC(=O)[C@](C)(CCC=C)NC(=O)[C@H](Cc1ccccc1)NC(=O)[C@H](Cc1ccc(O)cc1)NC(=O)[C@H](C)NC(=O)[C@@H](N)[C@@H](C)O)C(=O)NCC(=O)N[C@@H](CCCNC(=N)N)C(=O)N[C@@H](Cc1c[nH]c2ccccc12)C(N)=O [NLH11] (H-TAYF[αMeNva(5-ylidene)]LKL[αMeNva(5-ylidene)]GRW-NH2; N-terminus assumed)	74 ± 11	68 ± 5	18	> 18
